From patent US10035775B2, “Compositions for the treatment of fibrosis and fibrosis-related conditions” (VECTUS BIOSYSTEMS LIMITED, priority 2015, dated 2018)

How the values were obtained:
SHR [1] = assay: Masson's tri-chrome stained sections of portal tracts (liver tissue architecture); type: in vivo, rat; settings: treated rats versus control, FIG. 18
From the text: (§1) Fourteen week old SHR on a high fat diet (Glen Forrest Stockfeeders) were randomly assigned to test compound drinking solution (500 pmol/kg/min test compound in 10% ethanol in deionised distilled water) or control drinking solution (10% ethanol in deionised distilled water). After 4 weeks, rats were anaesthetised and blood samples were taken for analysis of plasma aminotransferase (AST) levels and livers were harvested. To quantitate tissue fibrosis and/or fat content, tissue slices≤3 mm thick were fixed in 10% buffered formalin for 24 hours, processed and embedded in paraffin. Three micron transverse sections were stained using Masson's trichrome stain. A minimum of 20 random fields at magnification×20 from transverse sections (5 at each of 2 levels) were digitized and the degree of fibrosis determined as a percent of field area of each digitized image using Image-Pro Plus V.7 (Media Cybernetics, Bethesda, Md., USA) then averaged to determine the level of fibrosis and/or fat content for each rat.

SHR [2] = assay: Hepatic fibrosis in SHR on high fat diet; type: in vivo, rat; settings: 10% ethanol drinking solution, 500 pmol/kg/min for 6 weeks, compared to controls, FIG. 17
Description: as §1, with “After 4 weeks, rats were anaesthetised and blood samples were taken for analysis of plasma aminotransferase (AST) levels and livers were harvested.” left out

[3] = test system: bovine aortic endothelial cells; assay: xCELLigence cellular impedance (cell index) in bovine aortic endothelial cells; type: cell-based; settings: 62.5 μM, 125 μM or 250 μM, measured for 3 hours, FIG. 13
From the text: The xCELLigence SP system (Roche) was used to measure changes in cellular impedance (cell index) following the treatment of bovine aortic endothelial cells (European Collection of Cell Cultures) with test compound. In this in vitro cell based experimental system a negative impedance profile correlates with blood pressure reduction in rats—a decrease in impedance is associated with vasodilatation and an increase in impedance is associated with vasoconstriction (Stallaert W, Dorn J F, van der Westhuizen E, Audet M & Bouvier M. Impedance responses reveal β-adrenergic signaling […] and allow classification of ligands with distinct signalling profiles PLoS ONE 2012; 7(1):e29420, doi:10.1371/journal.pone.0029420).
Briefly, 50 μl of cell culture medium (DMEM low glucose supplemented with 15% fetal bovine serum at 37° C.) was added to each well of an E-Plate 96 (Roche), and the background impedance in each well was measured. 50 μl of bovine aortic endothelial cell suspension (10,000 cells/well) was then added to the appropriate wells of the E-Plate 96. Cell index was monitored for each well of the E-Plate 96 in RTCA SP Station within the cell culture incubator. After overnight incubation for 16-20 hours at 5% CO2 and 95% humidity, 100 μl of test compound solution (test compounds were prepared in DMSO and diluted with cell culture medium to a concentration of 62.5 μM, 125 μM or 250 μM of test compound with a final DMSO concentration of 0.25%) was added to the appropriate wells of the E-Plate 96 and cell index values were measured immediately following compound treatment every 20 seconds for 3 hours. Cell index value is baseline-corrected by subtracting the cell index of vehicle-treated cells and normalized by dividing by the cell index at the time point immediately before compound addition. Baseline normalized cell index as a function of time is plotted using Roche RTCA software.

SHR [4] = assay: Fat accumulation in the liver in SHR on high fat diet; type: in vivo, rat; settings: 500 pmol/kg/min for 4 weeks, compared to 18 week controls, FIG. 20, p<0.05
From the text: as §1

[5] = test system: rat (NRK-52E) renal proximal tubule cells; assay: Cisplatin induced cell death, rat renal proximal tubule cells (WST-8/CCK-8); type: cell-based; settings: rat renal proximal tubular cells; cisplatin 12.5 μg/ml; 32 μM or 63 μM of compound; 24 hours; FIG. 14
Description: (§2) Human (HPCT-wt-05) and rat (NRK-52E) renal proximal tubule cells grown in (Keratinocyte Medium II+Keratinocyte Growth Supplement+5 ng/ml human recombinant epidermal growth factor+5% FBS+2 mM glutamine or DMEM+10% FBS+1% NEAA+2 mM glutamine respectively) were placed in 96 well plates at 10,000 cells/well and incubated at 37° C. with 5% CO2 overnight. Test compounds at concentrations of 32 μM or 63 μM were incubated with human or rat renal proximal tubule cells for 2 hours at 37° C. and 5% CO2. Cis-diamminedichloroplatinum[…] (cisplatin) was then added at a concentration of 5 μg/ml for human cells and 12.5 μg/ml for rat cells. Each cell population was then incubated for 24 hours at 37° C. with 5% CO2. Test compound A32 was maintained at its original concentrations. To assay the cytotoxic effects of cisplatin on the human and rat renal proximal tubule cells a highly water-soluble tetrazolium salt, WST-8, which is reduced by dehydrogenases in cells to produce formazan, a water-soluble, yellow-coloured indicator dye was used following the manufacturer's instructions (specifically the Cell Count Kit-8 (CCK-8) assay from Sigma). Plate absorbance of the WST-8 (CCK-8) reagent was then measured at 450 nm using a Thermo Scientific Multiskan EX plate reader.

SHR [6] = assay: Plasma aminotransferase (AST) levels in SHR on high fat diet; type: in vivo, rat; settings: 10% ethanol drinking solution, compared to controls, FIG. 21, p<0.025
Description: Fourteen week old SHR on a high fat diet (Glen Forrest Stockfeeders) were randomly assigned to test compound drinking solution (500 pmol/kg/min test compound in 10% ethanol in deionised distilled water) or control drinking solution (10% ethanol in deionised distilled water). After 4 weeks, rats were anaesthetised and blood samples were taken for analysis of plasma aminotransferase (AST) levels and livers were harvested. Plasma AST levels were measured using a RefloVET Plus (Roche) machine using consumable strips with magnetic assay identifiers recognized by the machine. A calibration standard was used in the machine prior to each use and the device was operated according to the manufacturer's instructions. Results are presented as international units per liter (IU/L).

SHR [7] = assay: Myocardial fibrosis in SHR on 2.2% salt diet; type: in vivo, rat; settings: 5% ethanol drinking solution, 500 pmol/kg/min for 4 weeks, compared to 14 and 18 week controls, FIG. 16
From the text: (§3) Fourteen week old SHR on a 2.2% salt diet (Glen Forrest Stockfeeders) were randomly assigned to zero time control, test compound treatment (500 pmol/kg/min) in the drinking solution or control drinking solution (5% ethanol in deionised distilled water (n=5 each group). The rats assigned to zero time control group (14 weeks old rats) were anaesthetised and had their kidneys and heart harvested while rats assigned to control and test compound treatment were weighed twice weekly and had their drinking solution intake monitored to allow adjustment of the test compound concentration in the drinking solution to maintain a constant dose over the 4-week study period (18 weeks old rats). At the completion of the study period, rats were anaesthetised and had their kidneys and heart harvested. To quantitate tissue fibrosis and/or fat content, tissue slices≤3 mm thick were fixed in 10% buffered formalin for 24 hours, processed and embedded in paraffin. Three micron transverse sections were stained using Masson's trichrome stain. A minimum of 20 random fields at magnification×20 from transverse sections (5 at each of 2 levels) were digitized and the degree of fibrosis determined as a percent of field area of each digitized image using Image-Pro Plus V.7 (Media Cybernetics, Bethesda, Md., USA) then averaged to determine the level of fibrosis and/or fat content for each rat.

SHR [8] = assay: Masson's tri-chrome stained sections of heart tissue (tissue architecture); type: in vivo, rat; settings: treated rats versus control, FIG. 19
From the text: as §3

SHR [9] = assay: Interstitial fibrosis in the kidney in SHR on 2.2% salt diet; type: in vivo, rat; settings: 5% ethanol drinking solution, 500 pmol/kg/min for 4 weeks, compared to 18 week controls, FIG. 15
From the text: as §3

[10] = test system: Human (HPCT-wt-05) renal proximal tubule cells; assay: Cisplatin induced cell death, human renal proximal tubule cells (WST-8/CCK-8); type: cell-based; settings: human renal proximal tubular cells; cisplatin 5 μg/ml; 32 μM or 63 μM of compound; 24 hours; FIG. 14
Description: as §2

SMILES | Tissue architecture in portal tract sections (SHR [1]) | Hepatic fibrosis (SHR [2]) | Cell impedance response (baseline normalized cell index) [3] | also measured
NC(CCc1cc(-c2ccccc2)ccc1-c1cccc(O)c1)C(F)(F)F (stereo not drawn) [A6, 2′-(3-Amino-4,4,4-trifluorobutyl)-1,1′:4′,1″-terphenyl-3-ol] | normal tissue architecture has been restored | decreased | Negative impedance responses | 
O=C1NCCC1Cc1cc(-c2ccccc2)ccc1-c1cccc(O)c1 (stereo not drawn) [A26] |  |  | Negative impedance responses | 
O=C1NCC/C1=C\c1cc(-c2ccccc2)ccc1-c1cccc(O)c1 [A27] | normal tissue architecture has been restored | decreased | Negative impedance responses | Fat in the liver (SHR [4]): reduced
O=C1CC(Cc2cc(-c3ccccc3)ccc2-c2cccc(O)c2)C(=O)N1 (stereo not drawn) [A30, 3-[(3-Hydroxy-1,1′:4′,1″-terphenyl-2′-yl)methyl]pyrrolidine-2,5-dione] |  |  | Negative impedance responses | 
O=C1NC(=O)C(Cc2cc(-c3ccccc3)ccc2-c2cccc(O)c2)N1 (stereo not drawn) [A32, 5-((3-Hydroxy-[1,1′:4′,1″-terphenyl]-2′-yl)methyl)imidazolidine-2,4-dione] | normal tissue architecture has been restored | decreased | Negative impedance responses | Cisplatin induced cell death [5]: decreased; Plasma AST levels (SHR [6]): decreased; Myocardial fibrosis (SHR [7]): decreased; Fat in the liver (SHR [4]): reduced; Fibrous tissue and tissue architecture in heart sections (SHR [8]): minimal fibrous tissue is present and normal tissue architecture has been restored; Fibrosis in the kidney (SHR [9]): decreased; Cisplatin induced cell death [10]: decreased
Nc1nocc1Cc1cc(-c2ccccc2)ccc1-c1cccc(O)c1 [A35] |  |  | Negative impedance responses | 
NOCCc1cc(-c2ccccc2)ccc1-c1cccc(O)c1 [A56, 2′-[2-(Aminooxy)ethyl]-1,1′:4′,1″-terphenyl-3-ol] | normal tissue architecture has been restored |  | Negative impedance responses | Fat in the liver (SHR [4]): reduced
OCCc1cc(-c2ccccc2)ccc1-c1cccc(O)c1 [A56f, 2′-(2-Hydroxyethyl)-1,1′:4′,1″-terphenyl-3-ol] | normal tissue architecture has been restored | decreased | Negative impedance responses | Plasma AST levels (SHR [6]): decreased
O=C1c2ccccc2C(=O)N1OCCc1cc(-c2ccccc2)ccc1-c1cccc(O)c1 [A56g, 2-[2-(3-Hydroxy-1,1′:4′,1″-terphenyl-2′-yl)ethoxy]-1H-isoindole-1,3(2H)-dione] |  |  | Negative impedance responses | 
O=C(O)Cc1cc(-c2ccccc2)ccc1-c1cccc(O)c1 [A56k, (3-Hydroxy-1,1′:4′,1″-terphenyl-2′-yl)acetic acid] |  |  | Negative impedance responses | 
OCc1cc(-c2ccccc2)ccc1-c1cccc(O)c1 [A81] |  |  | Negative impedance responses | 
